Assays:
[1] = target: human mGluR1 (Homo sapiens (Human), UniProt Q13255); assay: mGluR1 antagonism, L-glutamate induced intracellular calcium increase (FLIPR) in CHO cells stably expressing human mGluR1; format: cell-based; settings: L-glutamate induced intracellular calcium, CHO cells expressing human mGluR1, FLIPR
Source text: Activity of compounds of the present invention with respect to mGluR1 antagonism was examined by an assay based on measurements of L-glutamate induced intracellular calcium increases using a 96 well plate-based Fluorometric Imaging Plate Reader (FLIPR), and CHO cells stably expressing human mGluR1. L-glutamate induced robust calcium responses via human mGluR1 in a concentration-dependent manner and in the low micromolar range. The table below represents IC50 values of the inhibition of the glutamate-induced elevation of the intracellular calcium concentration.

[2] = target: human mGluR5a receptors (Homo sapiens (Human), UniProt P41594); assay: inhibition of glutamate-induced elevation of intracellular calcium in L(tk-) cells expressing human mGluR5a; format: cell-based; settings: glutamate-induced intracellular calcium elevation, L(tk-) cells expressing human mGluR5a; read-out: mGluR5 IC50
Source text: Activity of compounds of the present invention was examined by determination to what extent the glutamate-induced elevation of the intracellular calcium concentration in L(tk-) cells expressing human mGluR5a receptors (see L. P. Daggett et al., Neuropharm. Vol. 34, pages 871-886, 1995) is inhibited by utilizing methods as described e.g. by L. P. Daggett et al., Neuropharm. Vol. 34, pages 871-886 (1995) and P. J. Flor et al., J. Neurochem. Vol. 67, pages 58-63 (1996).

Sequence of human mGluR5a receptors (P41594 other isoform, or with tags, fused parts or gaps): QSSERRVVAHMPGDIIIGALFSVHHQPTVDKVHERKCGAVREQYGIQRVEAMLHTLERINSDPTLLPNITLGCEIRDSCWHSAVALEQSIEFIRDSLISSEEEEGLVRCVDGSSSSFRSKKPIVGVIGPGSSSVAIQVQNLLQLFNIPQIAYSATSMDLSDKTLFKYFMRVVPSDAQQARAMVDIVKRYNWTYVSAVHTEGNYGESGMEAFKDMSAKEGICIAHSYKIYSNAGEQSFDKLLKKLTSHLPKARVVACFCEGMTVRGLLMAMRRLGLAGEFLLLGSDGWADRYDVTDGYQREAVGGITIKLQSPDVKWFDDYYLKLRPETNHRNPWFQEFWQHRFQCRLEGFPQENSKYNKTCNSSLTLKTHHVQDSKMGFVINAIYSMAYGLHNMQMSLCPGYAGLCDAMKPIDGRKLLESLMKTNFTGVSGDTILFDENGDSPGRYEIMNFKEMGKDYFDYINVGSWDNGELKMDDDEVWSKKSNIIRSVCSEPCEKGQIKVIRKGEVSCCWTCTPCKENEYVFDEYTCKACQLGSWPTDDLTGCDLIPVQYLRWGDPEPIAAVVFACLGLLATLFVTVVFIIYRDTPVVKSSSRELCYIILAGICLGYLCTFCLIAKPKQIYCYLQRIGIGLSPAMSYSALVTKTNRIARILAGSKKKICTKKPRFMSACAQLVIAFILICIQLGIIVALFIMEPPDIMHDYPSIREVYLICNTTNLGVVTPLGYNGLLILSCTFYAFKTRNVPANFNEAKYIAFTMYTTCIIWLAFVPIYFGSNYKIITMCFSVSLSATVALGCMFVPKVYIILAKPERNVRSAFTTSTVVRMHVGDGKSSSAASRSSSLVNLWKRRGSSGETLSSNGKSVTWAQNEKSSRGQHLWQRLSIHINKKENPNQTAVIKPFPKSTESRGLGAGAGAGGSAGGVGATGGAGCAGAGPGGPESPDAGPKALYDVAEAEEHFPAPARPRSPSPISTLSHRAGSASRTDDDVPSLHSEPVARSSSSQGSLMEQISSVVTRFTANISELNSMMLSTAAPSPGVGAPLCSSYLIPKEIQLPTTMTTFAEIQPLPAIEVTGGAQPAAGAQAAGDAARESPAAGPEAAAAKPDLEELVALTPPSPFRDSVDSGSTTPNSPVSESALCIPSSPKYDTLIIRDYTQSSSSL
Sequence of human mGluR1 (Q13255 19-1194): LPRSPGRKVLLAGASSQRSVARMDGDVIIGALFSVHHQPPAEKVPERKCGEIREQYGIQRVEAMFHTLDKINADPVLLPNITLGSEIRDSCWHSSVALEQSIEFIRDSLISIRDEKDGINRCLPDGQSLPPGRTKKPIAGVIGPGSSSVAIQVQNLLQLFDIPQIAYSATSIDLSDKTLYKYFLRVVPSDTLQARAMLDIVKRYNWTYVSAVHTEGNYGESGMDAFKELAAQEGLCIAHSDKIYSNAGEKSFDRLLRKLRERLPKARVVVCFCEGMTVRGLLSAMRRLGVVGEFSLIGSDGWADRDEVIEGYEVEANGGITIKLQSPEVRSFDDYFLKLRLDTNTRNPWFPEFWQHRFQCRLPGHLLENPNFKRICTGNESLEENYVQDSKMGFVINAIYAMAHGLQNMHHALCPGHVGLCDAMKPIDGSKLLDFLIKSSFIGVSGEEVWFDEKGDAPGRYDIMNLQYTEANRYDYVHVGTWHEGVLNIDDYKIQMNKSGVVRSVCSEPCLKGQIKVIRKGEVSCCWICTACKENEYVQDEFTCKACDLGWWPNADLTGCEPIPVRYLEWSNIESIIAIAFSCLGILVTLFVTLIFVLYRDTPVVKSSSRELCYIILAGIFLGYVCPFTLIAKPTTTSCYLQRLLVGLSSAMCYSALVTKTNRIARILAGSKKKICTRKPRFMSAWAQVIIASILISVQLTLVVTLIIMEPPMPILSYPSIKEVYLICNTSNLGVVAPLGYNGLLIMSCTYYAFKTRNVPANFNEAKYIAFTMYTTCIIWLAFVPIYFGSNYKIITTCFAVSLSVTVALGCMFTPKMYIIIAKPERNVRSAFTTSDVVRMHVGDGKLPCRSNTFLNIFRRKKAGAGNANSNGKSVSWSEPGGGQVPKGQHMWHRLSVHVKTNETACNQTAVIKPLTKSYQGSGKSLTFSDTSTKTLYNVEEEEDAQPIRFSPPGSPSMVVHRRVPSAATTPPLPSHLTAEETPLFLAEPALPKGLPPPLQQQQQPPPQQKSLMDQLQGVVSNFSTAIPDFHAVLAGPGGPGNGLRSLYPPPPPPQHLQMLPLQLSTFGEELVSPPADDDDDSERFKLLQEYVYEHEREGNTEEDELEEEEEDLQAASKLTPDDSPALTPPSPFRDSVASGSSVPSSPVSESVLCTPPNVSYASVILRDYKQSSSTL

In the case of `O=C1CN=C(n2cnc(C(F)(F)F)c2)C=C2c3cccc(I)c3CCN12` [Example 63, 9-iodo-2-(4-(trifluoromethyl)-1H-imidazol-1-yl)-7,8-dihydro-[1,4]diazepino[7,1-a]isoquinolin-5(4H)-one], the IC50 [1] is reported as 3200 nM and the IC50 [2] is reported as 535 nM.

`N#Cc1cn(C2=NCC(=O)N3CCc4c(I)cccc4C3=C2)cn1` [Example 64, 1-(9-iodo-5-oxo-4,5,7,8-tetrahydro-[1,4]diazepino[7,1-a]isoquinolin-2-yl)-1H-imidazole-4-carbonitrile] showed an IC50 [1] of over 10000 nM and an IC50 [2] of 4300 nM.

`O=C1CN=C(n2cnc(CO)c2)C=C2c3cccc(I)c3CCN12` [Example 65, 2-(4-(hydroxymethyl)-1H-imidazol-1-yl)-9-iodo-7,8-dihydro-[1,4]diazepino[7,1-a]isoquinolin-5(4H)-one] was tested, and the IC50 [1] was 1500 nM and the IC50 [2] was 210 nM.

In the case of `COC(=O)c1cn(C2=NCC(=O)N3CCc4c(I)cccc4C3=C2)cn1` [Example 66, methyl 1-(9-iodo-5-oxo-4,5,7,8-tetrahydro-[1,4]diazepino[7,1-a]isoquinolin-2-yl)-1H-imidazole-4-carboxylate], the IC50 [1] is reported as over 10000 nM and the IC50 [2] is reported as 780 nM.

Work on `Cc1cn(C2=NCC(=O)N3CCc4c(I)cccc4C3=C2)c(C)n1` [Example 67, 2-(2,4-dimethyl-1H-imidazol-1-yl)-9-iodo-7,8-dihydro-[1,4]diazepino[7,1-a]isoquinolin-5(4H)-one] yielded an IC50 [1] of 1400 nM and an IC50 [2] of 715 nM.

`CCOC(=O)c1cn(C2=NCC(=O)N3CCc4c(I)cccc4C3=C2)cn1` [Example 68, ethyl 1-(9-iodo-5-oxo-4,5,7,8-tetrahydro-[1,4]diazepino[7,1-a]isoquinolin-2-yl)-1H-imidazole-4-carboxylate] gave an IC50 [1] of over 10000 nM and an IC50 [2] of 1700 nM.

Compound `O=C1CN=C(n2cnc(C3CCC3)c2)C=C2c3cccc(-n4cccn4)c3CCN12` [Example 69, 2-(4-cyclobutyl-1H-imidazol-1-yl)-9-(1H-pyrazol-1-yl)-7,8-dihydro-[1,4]diazepino[7,1-a]isoquinolin-5(4H)-one] has an IC50 [1] of over 10000 nM and an IC50 [2] of 20 nM.

`O=C1CN=C(n2cnc(C3CCC3)c2)C=C2c3cccc(N4CCOCC4)c3CCN12` [Example 70, 2-(4-cyclobutyl-1H-imidazol-1-yl)-9-morpholino-7,8-dihydro-[1,4]diazepino[7,1-a]isoquinolin-5(4H)-one] showed an IC50 [1] of over 10000 nM and an IC50 [2] of 49 nM.

`COCc1cn(C2=NCC(=O)N3CCc4c(cccc4-c4nccs4)C3=C2)cn1` [Example 71, 2-(4-(methoxymethyl)-1H-imidazol-1-yl)-9-(thiazol-2-yl)-7,8-dihydro-[1,4]diazepino[7,1-a]isoquinolin-5(4H)-one] gave an IC50 [1] of 6400 nM and an IC50 [2] of 27 nM.

`CC(C)c1cn(C2=NCC(=O)N3CCc4c(cccc4-c4cnn(C)c4)C3=C2)cn1` [Example 72, 2-(4-isopropyl-1H-imidazol-1-yl)-9-(1-methyl-1H-pyrazol-4-yl)-7,8-dihydro-[1,4]diazepino[7,1-a]isoquinolin-5(4H)-one] was tested, and the IC50 [1] was over 10000 nM and the IC50 [2] was 275 nM.

`CC(C)c1cn(C2=NCC(=O)N3CCc4c(cccc4-c4nccn4C)C3=C2)cn1` [Example 73, 2-(4-isopropyl-1H-imidazol-1-yl)-9-(1-methyl-1H-imidazol-2-yl)-7,8-dihydro-[1,4]diazepino[7,1-a]isoquinolin-5(4H)-one] gave an IC50 [1] of over 10000 nM and an IC50 [2] of 3500 nM.

With `CCc1cn(C2=NCC(=O)N3CCc4c(cccc4-c4ncco4)C3=C2)cn1` [Example 74, 2-(4-ethyl-1H-imidazol-1-yl)-9-(oxazol-2-yl)-7,8-dihydro-[1,4]diazepino[7,1-a]isoquinolin-5(4H)-one] the IC50 [1] was 1200 nM and the IC50 [2] was 22 nM.

With `CCc1cn(C2=NCC(=O)N3CCc4c(cccc4-c4ccco4)C3=C2)cn1` [Example 75, 2-(4-ethyl-1H-imidazol-1-yl)-9-(furan-2-yl)-7,8-dihydro-[1,4]diazepino[7,1-a]isoquinolin-5(4H)-one] the IC50 [1] was 170 nM and the IC50 [2] was 9 nM.
